Laboratory results taken from US6472369B1, “Anticancer compounds and methods” (The Regents of the University of Michigan, priority 1996, dated 2002).
Where no end group is shown, it is not given here. [ ]: non-standard residue; d: D form. hCys = N[C@@H](CCS)C(=O)O

Columns and labels:
[1] = tested on: metastatic SUM-52 PE breast cancer cells; assay: SU-ECM invasion assay, SUM-52 PE breast cancer cells; type: cell-based, human; conditions: SUM-52 cells
Description: Human breast carcinoma cell lines SUM 52 PE and SUM 44 PE were originally cultured from the pleural effusions of patients with metastatic breast cancer; and SUM 102 was cultured from a primary, microinvasive breast carcinoma (Ethier, S. P., Mahack, M. L., Gullick, W. J., Frank, T. S., and Weber, B. L. Differential isolation of normal luminal mammary epithelial cells and breast cancer cells from primary and metastatic sites using selective media. Cancer Res. 53: 627-635).
(§1) Adult Strongylocentrotus purpuratus sea urchins were obtained from Pacific BioMarine, and their embryos were cultured to the early pluteus stage in artificial sea water at 15° C. SU-ECM were prepared from them by treatment with nonionic detergent and strerilized by dilution in the appropriate media.
(§2) Cells were harvested by rinsing in Hanks' balanced salt solution, followed by brief treatment with 0.25% trypsin, 0.02% EDTA, and pelleting and resuspension in the appropriate medium with or without 5% FCS at a density of about 50,000 cells per ml. When appropriate, purified bovine plasma fibronectin (Sigma), purified 120 kDa chymotryptic fragment (Gibco BRL), PHSRN (SEQ ID NO:1) or PHSCN (SEQ ID NO:86) peptides (synthesized at the Biomedical Research Core Facilities of the University of Michigan), or GRGDSP (SEQ ID NO:83) or GRGESP (SEQ ID NO:84) peptides (Gibco BRL) were added to the resuspended cells prior to placement of the cells on SU-ECM. In each well of a plate used for an invasion assay, SU-ECM were placed in 0.5 ml of the appropriate medium, and 0.5 ml of the resuspended cells dropped on their exterior surfaces. Invasion assays were incubated 1 to 16 hours prior to assay. If some circumstances, invasion assays were fixed in phosphate-buffered saline (PBS) with 2% formaldehyde for 5 minutes at room temperature, then rinsed into PBS.
(§3) Invasion assays were coded and scored blindly by microscopic examination under phase contrast at 200- and 400-fold magnification. Each cell contacting an SU-ECM was scored for its position relative to the exterior or interior surfaces. A cell was judged to have invaded if it was located on an interior surface below the focal plane passing through the upper surface of the SU-ECM, but above the focal plane passing through its lower surface. The minimum viability of the cells in each assay was always ascertained at the time of assay by determining the fraction of spread, adherent cells on the bottom of each well scored.
(§4) An invasion frequency is defined as the fraction of cells in contact with basement membranes which were located in their interiors at the time of assay. Thus, an invasion frequency of 1 denotes invasion by 100% of the cells in contact with basement membranes. Invasion frequencies were determined multiple times for each cell type assayed. For each type of cell assayed the mean and standard deviation of the invasion frequencies were calculated.
The method of Example 4 is employed, with the addition of varying concentrations of the PHSCN (SEQ ID NO:86) peptide.
Thus, the procedure in Example 4 provides a method for determining the inhibitory potential of the PHSCN (SEQ ID NO:86) peptide by comparing the number of cell invasions in the presence of the PHSCN (SEQ ID NO:86) peptide, with the number of cell invasions in the absence of the PHSCN (SEQ ID NO:86) peptide.

[2] = tested on: metastatic DU-145 prostate cancer cells; assay: SU-ECM invasion assay, DU-145 prostate cancer cells; type: cell-based, human; conditions: DU-145 cells
[3] = tested on: neonatal, human fibroblasts; assay: Fibroblast invasion of SU-ECM basement membranes; type: cell-based; conditions: for stimulation of fibroblast invasion of basement membranes in vitro: in the presence of serum or under serum-free conditions
Description: as §1
as §2, with “If some circumstances, invasion assays were fixed in phosphate-buffered saline (PBS) with 2% formaldehyde for 5 minutes at room temperature, then rinsed into PBS.” left out
Invasion assays were coded and scored blindly by microscopic examination under phase contrast at 200- and 400-fold magnification. Each cell contacting an SU-ECM was scored for its position relative to the exterior or interior surfaces. […] The minimum viability of the cells in each assay was always ascertained at the time of assay by determining the fraction of spread, adherent cells on the bottom of each well scored.
An invasion frequency is defined as the fraction of cells in contact with basement membranes which were located in their interiors at the time of assay. […] Invasion frequencies were determined multiple times for each cell type assayed. For each type of cell assayed the mean and standard deviation of the invasion frequencies were calculated. […]

[4] = tested on: DU-145 metastatic prostate cancer cells; assay: Invasion of fibronectin-depleted Matrigel by DU-145 cells; type: cell-based, human; conditions: 0.5 μl/ml peptide added to gelatin-panned Matrigel, FIG. 3
Description: This example describes a purification approach for removal of plasma fibronectin (and/or cellular fibronectin) from a substrate (Matrigel). In this example, removal was attempted by successive panning on gelatin. Eight wells of 24-well plate were coated with a 2% gelatin solution (the gelatin was obtained from Becton Dickinson Labware, Catalog #11868). The wells were filled with the gelatin solution which had been heated to 50 C. and incubated for 3 minutes. Then the solution was removed and the wells were allowed to air dry. Following drying, the wells were thoroughly rinsed with ddH2O followed by two rinses with PBS. The plates were again allowed to dry; thereafter they were stored at −20 C. until use. Matrigel was thawed on ice and then added to one of the wells of a gelatin-coated plate (between 800 μl and 1 ml of Matrigel was added to a well of a 24-well plate). The plate was placed in a bucket of ice in a 4 C. room on an orbital shaker where the Matrigel was incubated in the well for two hours (although overnight incubation can be used). Following the incubation, the Matrigel was moved from the first well to a second well and then incubated for two hours under the same conditions. This process was repeated until the Matrigel had been incubated on all eight wells of the gelatin-coated plate.
Following the depletion of the Matrigel, it was collected in Eppendorf tubes. […]

[5] = tested on: normal, neonatal fibroblasts; assay: Invasion of gelatin- and antibody-depleted Matrigel by fibroblasts; type: cell-based; conditions: Matrigel depleted by gelatin and antibody panning, FIG. 4
Description: Anti-fibronectin antibody-coated wells: Wells of a 24-well plate were coated with an anti-fibronectin antibody. A mouse monoclonal antibody to human fibronectin was obtained from Oncogene Science (Catalog #CP13). Each well was incubated with 1 ml of antibody at a concentration of 30 μl/ml for 2 hours at room temperature. Each well was then incubated with a solution of 3% BSA in PBS for 2 hours at room temperature. Following the two incubation periods, the wells were thoroughly washed with PBS and stored at −20 C. until use.
Depleting Matrigel of Fibronectin: Matrigel was panned over eight gelatin-coated wells (as described above in Example 2) to remove most of the fibronectin and its fragments. Thereafter, the Matrigel was placed in the antibody-coated wells to remove any remaining fragments of fibronectin which contain the cell-binding domain but not the gelatin-binding domain. The Matrigel was incubated in an ice bucket on an orbital shaker at 4 C. for 2 hours. Once the Matrigel was depleted, it was collected in Eppendorf tubes. The firbonectin-depleted Matrigel was plated on a 48-well plate (150 μl/well), sterilized under a UV light for 10 minutes and incubated at 37 C. overnight. The Matrigel formed a gel and the following day, cells were added to the wells. […]

keratinocytes = assay: Keratinocyte invasion of serum-free SU-ECM; type: cell-based
From the text: Since, during wound reepithelialization, keratinocytes migrate through the connective tissue of the provisional matrix to “wall off” portions of the wound, as well as through the adjacent stroma, it is not surprising that they are also stimulated to migrate through the matrix of SU-ECM invasion substrates by the PHSRN (SEQ ID NO:1) sequence. […] Recruitment of fibroblasts or monocytes/macrophages whose paracrine, regulatory effects on a variety of neighboring cells are required for the early stages of wound healing is contemplated as a highly efficient and effective way to stimulate the cascade of regulatory interactions involved in wound healing because these cells will secrete the active factors or cytokines in the correct temporal sequences and spatial locations to ensure their optimal activities. Because it efficiently induces keratinocyte migration through the extracellular matrix in vitro, the PHSRN (SEQ ID NO:1) peptide is also likely to stimulate wound reepithelialization directly. The use of the PHSRN (SEQ ID NO:1) peptide or structurally related molecules according to the present invention is to stimulate the entry of cells such as fibroblasts and monocyte/macrophages into the provisional matrix of a wound, so that the entering cells themselves secrete the factors and cytokines active in inducing or potentiating wound healing. […]

[6] = tested on: rat metastatic prostate carcinoma MatLyLu (MLL) cells; assay: SU-ECM invasion assay, rat MatLyLu prostate carcinoma cells; type: cell-based; conditions: 10% FCS, FIG. 8
Description: as §1, §2, §3, §4
The result of adding a varying concentration of the PHSCN (SEQ ID NO:86) peptide to PHSRN-induced (SEQ ID NO:1) MLL cells in serum free media is shown in FIG. 7B, where 100 ng per ml of PHSRN (SEQ ID NO:1) was used to induce invasion.
The procedure described in Example 10, was employed using SU-ECM substrates in 10% FCS and PHS(hC)N (SEQ ID NO:85) instead of PHSCN (SEQ ID NO:86). The result of adding varying concentrations of the PHS(hC)N (SEQ ID NO:85) peptide to serum-induced MLL cells indicates this peptide also has an inhibitory affect on cell invasion (see FIG. 8).

Row | Substance | induction of invasion of the SU-ECM substrate [1] | induction of invasion of the SU-ECM substrate [2] | stimulation of fibroblast invasion of basement membranes in vitro [3] | restoration of DU-145 invasiveness on depleted Matrigel [4] | induction of fibroblast invasiveness on depleted Matrigel [5] | induction of fibroblast invasion of SU-ECM ([3]; serum-free SU-ECM) | stimulation of keratinocyte invasion (keratinocytes) | inhibition of serum-induced invasion of SU-ECM ([6]; higher concentrations) | inhibition of serum-induced invasion of SU-ECM ([6]; lower concentrations)
1 | intact plasma fibronectin: purified bovine plasma fibronectin (Sigma); a significant component of serum | induced to invade | induced to invade | fails to stimulate fibroblast invasion |  |  |  |  |  | 
2 | Pro-His-Ser-Arg-Asn (PHSRN) | induced to invade | induced to invade | sufficient to stimulate fibroblast invasion | sufficient to restore the full DU-145 invasiveness | invasiveness of the fibroblasts could be induced | induced | stimulate keratinocyte invasion |  | 
3 | PHS(hC)N: homo-cysteine containing peptide (PHS[hCys]N) |  |  |  |  |  |  |  | completely inhibits invasion | substantially inhibits invasion
